{"source": "patent US20200352912A1", "about": "“ANTIMICROBIAL COMPOSITIONS AND METHODS OF USING THE SAME” (The Board Of Supervisors Of Louisiana State University And …, priority 2018, published 2020)", "key": {"S. aureus NRS383": {"tested_on": "S. aureus NRS383", "experiment": "planktonic antimicrobial assay (OD600 growth)", "format": "cell-based, Staphylococcus aureus", "settings": "100 μg/ml (inhibitor-specific concentrations b175), OD600 up to 24 h", "protocol": "Effect of COX enzyme inhibitors or PGE2 EP receptor antagonists on microbial growth. The antimicrobial activity of selective COX enzyme inhibitor or PGE2 EP receptor antagonist on the growth of C. albicans DAY185 (A), S. aureus NRS383 (B) and MRSA and MSSA clinical isolates (C). Growth of C. albicans and S. aureus was monitored for up to 24 h in medium alone or supplemented with DMSO or EP receptor antagonists or COX enzyme inhibitor at physiologically relevant concentrations. Data shown are representative of three independent experiments.\nC. albicans and S. aureus were grown as described above. […] Cells were grown with shaking as described above, and 1 ml aliquots were removed each hour in duplicate and optical density at 600 nm measured (OD600) by spectrophotometer (Biomate 3S, Thermo Scientific)."}, "E. coli": {"tested_on": "E. coli", "experiment": "spectrum of activity, bacterial growth", "format": "cell-based, Escherichia coli", "settings": "50 μg/ml, 6 h", "protocol": "Bacterial growth was monitored for 6 h in medium alone or supplemented with 50 μg/ml of L-161, 982. Data shown is representative of three independent experiments.\nStrains and growth conditions. The methicillin-resistant S. aureus strain NRS383 used in all experiments was obtained from the Network on Antimicrobial Resistance in S. aureus (NARSA) data bank. NRS383 is positive for the toxic shock syndrome toxin (tst) and 6-toxin genes. SJ-MRSA 6 and SJ-SA5 are methicillin-resistant (MRSA) and methicillin-sensitive (MSSA) clinical S. aureus strains respectively isolated from a patient's catheter. Other bacterial species used in this study include Escherichia coli (ATCC 25922, clinical isolate), S. epidermidis (ATCC 12228), Klebsiella pneumonia (ATCC 43816), Enterococcus faecalis (ATCC 51299, clinical isolate), and Streptococcus mutans (UA159, 12). S. mutans strain was maintained in brain heart infusion (BHI) broth while the other bacterial species were maintained in Luria-Bertani broth. Frozen stocks were obtained at −80° C. and streaked onto agar plates at 37° C. prior to use. A single colony was transferred to 10 ml of culture broth and shaken at 37° C. overnight. On the following day, the overnight culture was diluted 1:100 in fresh growth medium and shaken at 37° C. for 3 h to obtain cells in mid-log growth phase. S. mutans cultures were grown without agitation in the presence of 5% CO2. […]"}, "[1]": {"tested_on": "S. aureus pre-formed mono-species biofilm", "experiment": "pre-formed mature biofilm (XTT, CFU)", "format": "cell-based, Staphylococcus aureus", "protocol": "The effect of L-161, 982 on pre-formed mature biofilms was tested. Mono- and dual-species C. albicans and/or S. aureus biofilms were grown on 96-well plates for 24 h before being treated with the indicated concentration of L-161, 982 for a further 24 h. After treatment, metabolic activity of biofilms was quantified by the XTT assay (A) and then biofilms were disrupted to determine live colony forming units (CFU) (B). The results are cumulative of three independent experiments with duplicate samples. Statistics were performed using One-way ANOVA with the Tukey post-hoc test for the XTT assay. The Mann-Whitney U test was used to analyze CFU data. Significance is indicated as follows: ns—not significant, *P<0.05; *** P<0.001. Error bars represent standard deviation.\nFollowing growth as described above, microbes were washed in phosphate-buffered saline (PBS) by centrifugation, counted on a hemocytometer, and adjusted to 2×10^7 CFU/ml in RPMI buffered with MOPS (165 mM). For monomicrobial biofilms, 50 μl of adjusted C. albicans or S. aureus culture was added to each well of a sterile 96-well cell culture polystyrene microtiter plate (1×10^6 CFU per well); to this, 50 μl of sterile RPMI+MOPS was added. For polymicrobial biofilms, 50 μl of each organism was added per well (1×10^6 CFU of each organism per well). Plates were incubated for 24 h at 37° C. to induce biofilm formation. Following confirmation of mature biofilm growth by macro- and microscopic examination, plates were washed once with 200 μl sterile saline and then 200 μl RPMI+MOPS containing L-161, 982 at various concentrations (6.25-200 μg/ml) added to each well. […]\nThe XTT reduction assay was used to determine the metabolic activity of biofilms following treatment with L-161, 982 (17). Briefly, wells were washed once in PBS, and plates incubated at 37° C. for 2 h with 200 μl XTT working reagent (0.5 mg/ml XTT and 1 μM Menadione) and the resulting absorbance measured at 490 nm on a microplate spectrophotometer. […]"}, "FP": {"target": "FP (Homo sapiens, UniProt P43088)", "sequence (P43088 whole entry)": "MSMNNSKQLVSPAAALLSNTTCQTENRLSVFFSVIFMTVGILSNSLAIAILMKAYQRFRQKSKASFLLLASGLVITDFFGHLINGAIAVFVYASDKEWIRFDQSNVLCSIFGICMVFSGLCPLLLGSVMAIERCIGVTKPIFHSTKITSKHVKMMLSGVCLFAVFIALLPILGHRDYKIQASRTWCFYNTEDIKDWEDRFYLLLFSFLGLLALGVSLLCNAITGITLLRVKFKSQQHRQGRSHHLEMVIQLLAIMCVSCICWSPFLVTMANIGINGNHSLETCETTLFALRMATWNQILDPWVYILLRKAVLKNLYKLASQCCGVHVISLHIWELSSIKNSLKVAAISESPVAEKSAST", "settings": "cited from earlier work"}, "[2]": {"tested_on": "PGE2-stimulated bone formation", "settings": "10 mg/kg/day, young rats; cited from earlier work"}, "mouse primary myoblasts": {"tested_on": "mouse primary myoblasts", "settings": "cited from earlier work"}}}
{"smiles": "CCCCc1nn(-c2ccccc2C(F)(F)F)c(=O)n1Cc1ccc(-c2ccccc2S(=O)(=O)NC(=O)c2sccc2C)cc1", "note": "[L-161, 982, N-[[4′-[[3-Butyl-1,5-dihydro-5-oxo-1-[2-(trifluoromethyl)phenyl]-4H-1,2,4-triazol-4-yl]methyl][1,1′-biphenyl]-2-yl]sulfonyl]-3-methyl-2-thiophenecarboxamide]", "values": [{"measurement": "growth of S. aureus", "setting": "S. aureus NRS383", "result": "significant inhibitory effect"}, {"measurement": "growth inhibitory activity", "setting": "E. coli", "result": "No inhibitory effects"}, {"measurement": "concentration required to weaken pre-formed mature biofilms", "setting": "[1]", "result": 100, "unit": "µg/mL"}, {"measurement": "CFUs recovered from pre-formed biofilm", "setting": "[1]; 100 and 200 μg/ml", "result": "no CFUs were recovered"}, {"measurement": "metabolic activity of pre-formed biofilm", "setting": "[1]; all concentrations tested, 24 h treatment", "result": "no significant inhibitory effects"}, {"measurement": "Ki", "setting": "FP", "result": 5.6, "unit": "µM"}, {"measurement": "effect on PGE2-stimulated bone formation", "setting": "[2]", "result": "suppresses"}, {"measurement": "proliferation of mouse primary myoblasts", "setting": "mouse primary myoblasts", "result": "inhibit proliferation"}]}
